From article PMC12557438, “Thiadiazino-indole, thiadiazino-carbazole and benzothiadiazino-carbazole dioxides: synthesis, physicochemical and early ADME characterization of representatives of new tri-, tetra- and pentacyclic ring systems and their intermediates” (Beilstein Journal of Organic Chemistry, 2025)
Values after ≈ are worked out from the molar mass of the structure shown.

Key:
Type in all cases: physicochemical
[1] = Kinetic aqueous solubility assay; design: key to Kinetic solubility (no value): –: Compounds with no value were under the detection limit; conditions: room temperature; for solubility kinetic at 2 h: PBS buffer, pH 6.5, aqueous buffer, kinetic from dmso stock, PBS pH 6.5, 100 µM target concentration (1% DMSO), mean of 3 replicates, read-out: Kinetic solubility; for Kinetic solubility (no value): PBS pH 6.5, 2 hours, dash = under the detection limit
Experimental: (§1) Kinetic aqueous solubility assay. All compounds were dissolved in DMSO to make stock solutions at 10 mM concentration. […] 5 μL of the stock solutions was pipetted into a 96-well plate containing 495 μL PBS (pH 6.5) in each well to achieve 100 μM target concentration (1% DMSO). […] The plate was then sealed and shaken for 2 hours at room temperature. Each compound was investigated in 3 replicates. After 2 hours, the samples were filtered on a MultriscreenHTS filter plate (MSSLBPC, polycarbonate membrane, Merck KGaA, Darmstadt, Germany) by a Millipore Vacuum Manifold (Merck KGaA, Darmstadt, Germany). Before analyzing, 20 vol % acetonitrile was added to each well to avoid sample precipitation during HPLC analysis.
Analytical methods. […] For a 7-minute long gradient program, eluents A (0.1% formic acid in water) and B (0.1% formic acid in acetonitrile) were used as follows: initial conditions with 30% B were kept for 1 minute, then 90% B was achieved within 3 minutes, kept for further 1 minute, finally the initial condition was adjusted and equilibrated for further 2 minutes. 5-Point calibration series were measured from each compound resulting in R^2 ≈ 0.9990–0.9999.

[2] = Determination of the capacity factor (logk) by RP-HPLC; conditions: reversed-phase chromatographic capacity factor, eluent pH 7.0
Experimental: Determination of the capacity factor. […] The same analytical method was used with modified eluents: eluent A was 20 mM triethylamine with phosphoric acid (pH 7.0), and eluent B was acetonitrile without additives. The method time was slightly extended, with a 1-minute longer gradient, resulting in an 8-minute program. The capacity factor was calculated with Equation 3: […]
where k is the capacity factor, tR is the retention time (min) of the compounds and t0 is the dead-time of the column (min).

[3] = DMSO solubility (stock solution preparation)
Experimental: as §1

Compound	solubility kinetic at 2 h [1] [µM]	logk (−) pH 7.0 [2]	highest concentration achieved in DMSO [3] [mM]	Kinetic solubility (no value) [1]
CN1N=C(c2ccccc2)c2cccc(NN=C3CCCCC3)c2S1(=O)=O [Compound 7j]	2.8 ± 0.2 (≈ 1.07 µg/mL)	0.660	0.5	
CN1N=C(c2ccccc2)c2cccc(NN=C3CCCC3)c2S1(=O)=O [Compound 7i]	2.2 ± 0.1 (≈ 0.811 µg/mL)	0.661	0.5	
CN1N=C(c2ccccc2)c2cccc(N/N=C3\CCCc4ccccc43)c2S1(=O)=O [(E)-9b]		0.695	0.5	–
CC1=NN(C)S(=O)(=O)c2c(N/N=C3\CCCc4ccccc43)cccc21 [(E)-9a]		0.653	1	–
